Data on 35 compounds can be found in US11384055B2 (BIOMARIN PHARMACEUTICAL INC., priority 2017, dated 2022).

One test deals with T1, Human GO (Homo sapiens, UniProt Q9UJM8).
T1 construct: purchased Novus Biologicals NBP1-72412
T1 sequence (Q9UJM8 1-370): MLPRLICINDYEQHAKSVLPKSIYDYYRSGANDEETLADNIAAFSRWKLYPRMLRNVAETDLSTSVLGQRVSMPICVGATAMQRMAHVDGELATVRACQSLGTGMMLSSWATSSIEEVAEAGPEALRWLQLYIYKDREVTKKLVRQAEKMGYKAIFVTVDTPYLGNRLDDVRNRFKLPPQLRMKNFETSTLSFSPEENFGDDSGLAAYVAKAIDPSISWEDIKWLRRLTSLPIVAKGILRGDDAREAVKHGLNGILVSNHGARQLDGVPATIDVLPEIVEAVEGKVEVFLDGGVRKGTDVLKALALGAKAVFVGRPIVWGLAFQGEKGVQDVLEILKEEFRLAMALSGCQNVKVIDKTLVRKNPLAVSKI
In words: GO enzymatic assay (coupled fluorescence/HRP assay, glycolate substrate). It counts as biochemical.
Conditions: not given
The protocol:
Assay 1: GO Enzymatic Assay
GO was incubated with its substrate, glycolate, in 50 mM potassium phosphate buffer, pH 7. […] The enzyme was optimized and the kinetics was determined.
Compound inhibition was determined by adding various concentrations of inhibitors in the GO enzyme assay. The IC50 value for each measured compound was generated from sigmoidal dose-response (variable slope) curves with GraphPad Prism software (GraphPad Software, Inc., San Diego, Calif.) using the percent inhibition of GO activity relative to DMSO control.
Compound `O=C(O)c1[nH]nnc1Sc1ccc(Cl)c(Cl)c1` [Compound 41, 4-((3,4-dichlorophenyl)thio)-1H-1,2,3-triazole-5-carboxylic acid] displayed an IC50 of under 0.1 µM.

Still in this test, the particulars now being: Table 1; read-out: Range (range of IC50 values calculated from the enzymatic assays).
Consider `O=C(O)c1[nH]nnc1Sc1ccc(-c2ccc(Cl)c(OC(F)(F)F)c2)cc1` [Compound 30, 4-((4′-chloro-3′-(trifluoromethoxy)-[1,1′-biphenyl]-4-yl)thio)-1H-1,2,3-triazole-5-carboxylic acid], for which the IC50 was under 0.1 µM.
Still for that read-out and setting: for `O=C(O)c1[nH]nnc1Sc1ccc(-c2cccc(OC(F)(F)F)c2Cl)cc1` [Compound 31, 4-((2′-chloro-3′-(trifluoromethoxy)-[1,1′-biphenyl]-4-yl)thio)-1H-1,2,3-triazole-5-carboxylic acid] the value was under 0.1 µM; for `O=C(O)c1[nH]nnc1Sc1ccc(-c2ccc(OC(F)(F)F)c(Cl)c2)cc1` [Compound 32, 4-((3′-chloro-4′-(trifluoromethoxy)-[1,1′-biphenyl]-4-yl)thio)-1H-1,2,3-triazole-5-carboxylic acid], under 0.1 µM; for `COC(=O)c1[nH]nnc1Sc1ccc(-c2ccc(OC(F)(F)F)cc2)cc1` [Compound 33, methyl 4-((4′-(trifluoromethoxy)-[1,1′-biphenyl]-4-yl)thio)-1H-1,2,3-triazole-5-carboxylate], over 10 µM.
The same measure, in the same setting: for `CCCCOc1ccc2sc(Sc3nn[nH]c3C(=O)O)nc2c1` [Compound 34, 4-((5-butoxybenzo[d]thiazol-2-yl)thio)-1H-1,2,3-triazole-5-carboxylic acid] the value was 0.1 to 1 µM; for `Cn1c(Sc2nn[nH]c2C(=O)O)cnc1-c1ccc(Cl)c(Cl)c1` [Compound 35, 4-((2-(3,4-dichlorophenyl)-1-methyl-1H-imidazol-5-yl)thio)-1H-1,2,3-triazole-5-carboxylic acid 2,2,2-trifluoroacetate], 0.1 to 1 µM.
On the same count and under the same terms, for `O=C(O)c1[nH]nnc1Sc1csc(-c2ccc(Cl)c(Cl)c2)c1` [Compound 36, 4-((5-(3,4-dichlorophenyl)thiophen-3-yl)thio)-1H-1,2,3-triazole-5-carboxylic acid] the value was under 0.1 µM.
For `CN(C)CCOC(=O)c1[nH]nnc1Sc1ccc(-c2ccc(OC(F)(F)F)cc2)cc1` [Compound 37, 2-(dimethylamino)ethyl 4-((4′-(trifluoromethoxy)-[1,1′-biphenyl]-4-yl)thio)-1H-1,2,3-triazole-5-carboxylate], the IC50 was over 10 µM.
The same measure, in the same setting: then `O=C(O)c1[nH]nnc1Sc1csc(-c2ccc(OC(F)(F)F)c(Cl)c2)n1` [Compound 39, 4-((2-(3-chloro-4-(trifluoromethoxy)phenyl)thiazol-4-yl)thio)-1H-1,2,3-triazole-5-carboxylic acid], with under 0.1 µM; and `COC(=O)c1[nH]nnc1Sc1csc(-c2ccc(OC(F)(F)F)c(Cl)c2)n1` [Compound 40, methyl 4-((2-(3-chloro-4-(trifluoromethoxy)phenyl)thiazol-4-yl)thio)-1H-1,2,3-triazole-5-carboxylate], with over 10 µM.
Same read-out and setting: for `O=C(O)c1[nH]nnc1Sc1cccc(-c2ccc(OC(F)(F)F)cc2)c1` [Compound 42, 4-((4′-(trifluoromethoxy)-[1,1′-biphenyl]-3-yl)thio)-1H-1,2,3-triazole-5-carboxylic acid] the value was under 0.1 µM.
The same measure, in the same setting: then `O=C(O)c1[nH]nnc1Sc1nc(-c2ccc(OC(F)(F)F)c(Cl)c2)cs1` [Compound 43, 4-((4-(3-chloro-4-(trifluoromethoxy)phenyl)thiazol-2-yl)thio)-1H-1,2,3-triazole-5-carboxylic acid], with under 0.1 µM; and `COC(=O)c1[nH]nnc1Sc1nc(-c2ccc(OC(F)(F)F)c(Cl)c2)cs1` [Compound 44, methyl 4-((4-(3-chloro-4-(trifluoromethoxy)phenyl)thiazol-2-yl)thio)-1H-1,2,3-triazole-5-carboxylate], with over 10 µM; and `O=C(OC1COC1)c1[nH]nnc1Sc1ccc(-c2ccc(OC(F)(F)F)cc2)cc1` [Compound 45, oxetan-3-yl 4-((4′-(trifluoromethoxy)-[1,1′-biphenyl]-4-yl)thio)-1H-1,2,3-triazole-5-carboxylate], with 1 to 10 µM.
As to `O=C(O)c1[nH]nnc1Sc1ccc2cc(Cl)ccc2n1` [Compound 46, 4-((6-chloroquinolin-2-yl)thio)-1H-1,2,3-triazole-5-carboxylic acid], the half-inhibitory concentration (IC50) is 0.1 to 1 µM.
Take `O=C(O)c1[nH]nnc1Sc1ccc(-c2ccc(Cl)cc2)c(Cl)c1` [Compound 47, 4-((2,4′-dichloro-[1,1′-biphenyl]-4-yl)thio)-1H-1,2,3-triazole-5-carboxylic acid]: the 50% inhibitory concentration (IC50) was under 0.1 µM.
With `O=C(O)c1[nH]nnc1Sc1ccc(-c2ccc(Cl)cc2)cc1Cl` [Compound 48, 4-((3,4′-dichloro-[1,1′-biphenyl]-4-yl)thio)-1H-1,2,3-triazole-5-carboxylic acid], the half-maximal inhibitory concentration (IC50) is under 0.1 µM.
Same read-out and setting: for `O=C(O)c1[nH]nnc1Sc1ccc(F)c(F)c1` [Compound 49, 4-((3,4-difluorophenyl)thio)-1H-1,2,3-triazole-5-carboxylic acid] the value was under 0.1 µM; for `O=C(O)c1[nH]nnc1Sc1ccc2c(c1)CCCC2` [Compound 50, 4-((5,6,7,8-tetrahydronaphthalen-2-yl)thio)-1H-1,2,3-triazole-5-carboxylic acid], under 0.1 µM.
Still for that read-out and setting: for `CC(C)(C)C(=O)OCn1nnc(Sc2ccc(-c3ccc(OC(F)(F)F)cc3)cc2)c1C(=O)O` [Compound 51, 1-((pivaloyloxy)methyl)-4-((4′-(trifluoromethoxy)-[1,1′-biphenyl]-4-yl)thio)-1H-1,2,3-triazole-5-carboxylic acid] the value was 0.1 to 1 µM.
The same measure, in the same setting: then `CC(C)C(=O)OCn1nnc(Sc2ccc(-c3ccc(OC(F)(F)F)cc3)cc2)c1C(=O)O` [Compound 52, 1-((isobutyryloxy)methyl)-4-((4′-(trifluoromethoxy)-[1,1′-biphenyl]-4-yl)thio)-1H-1,2,3-triazole-5-carboxylic acid], with 0.1 to 1 µM.
Regarding `O=C(O)c1[nH]nnc1Sc1ccc2ncsc2c1` [Compound 53, 4-(benzo[d]thiazol-6-ylthio)-1H-1,2,3-triazole-5-carboxylic acid 2,2,2-trifluoroacetate], the IC50 was under 0.1 µM.
In the case of `CC(C)(C)C(=O)OCOC(=O)c1[nH]nnc1Sc1ccc(-c2ccc(OC(F)(F)F)cc2)cc1` [Compound 54, (pivaloyloxy)methyl 4-((4′-(trifluoromethoxy)-[1,1′-biphenyl]-4-yl)thio)-1H-1,2,3-triazole-5-carboxylate], the IC50 is 1 to 10 µM.
For the compound `CC(C)C(=O)OCOC(=O)c1[nH]nnc1Sc1ccc(-c2ccc(OC(F)(F)F)cc2)cc1` [Compound 55, (isobutyryloxy)methyl 4-((4′-(trifluoromethoxy)-[1,1′-biphenyl]-4-yl)thio)-1H-1,2,3-triazole-5-carboxylate], the IC50 is 0.1 to 1 µM.
Still for that read-out and setting: for `O=C(O)c1[nH]nnc1Sc1ccc2cc(Cl)ccc2c1` [Compound 56, 4-((6-chloronaphthalen-2-yl)thio)-1H-1,2,3-triazole-5-carboxylic acid] the value was under 0.1 µM; for `O=C(O)c1[nH]nnc1SC1Cc2cc(Cl)c(Cl)cc2C1` [Compound 57, 4-((5,6-dichloro-2,3-dihydro-1H-inden-2-yl)thio)-1H-1,2,3-triazole-5-carboxylic 2,2,2-trifluoroacetate], under 0.1 µM; for `CCOC(=O)c1[nH]nnc1Nc1ccc(-c2ccc(Cl)cc2)cc1` [Compound 58-1, ethyl 4-((4′-chloro-[1,1′-biphenyl]-4-yl)amino)-1H-1,2,3-triazole-5-carboxylate], over 10 µM.
Still for that read-out and setting: for `O=C(O)c1[nH]nnc1Nc1ccc(-c2ccc(Cl)cc2)cc1` [Compound 58-2, 4-((4′-chloro-[1,1′-biphenyl]-4-yl)amino)-1H-1,2,3-triazole-5-carboxylic acid] the value was under 0.1 µM; for `O=C(O)c1[nH]nnc1Nc1nc(-c2ccc(Cl)c(Cl)c2)cs1` [Compound 59, 4-((4-(3,4-dichlorophenyl)thiazol-2-yl)amino)-1H-1,2,3-triazole-5-carboxylic acid], under 0.1 µM; for `O=C(O)c1[nH]nnc1Nc1ccc(-c2ccc(Cl)c(Cl)c2)cc1` [Compound 60, 4-((3′,4′-dichloro-[1,1′-biphenyl]-4-yl)amino)-1H-1,2,3-triazole-5-carboxylic acid], under 0.1 µM.
On to `O=C(O)c1[nH]nnc1Nc1csc(-c2ccc(Cl)c(Cl)c2)n1` [Compound 61, ammonium 4-((2-(3,4-dichlorophenyl)thiazol-4-yl)amino)-1H-1,2,3-triazole-5-carboxylate], for which the IC50 was under 0.1 µM.
As for `O=C(O)c1[nH]nnc1Nc1ccc(-c2ccc(OC(F)(F)F)cc2)cc1` [Compound 62, 4-((4′-(trifluoromethoxy)-[1,1′-biphenyl]-4-yl)amino)-1H-1,2,3-triazole-5-carboxylic acid 2,2,2-trifluoroacetate], the half-maximal inhibitory concentration (IC50) is under 0.1 µM.
As for `CN(c1csc(-c2ccc(Cl)c(Cl)c2)n1)c1nn[nH]c1C(=O)O` [Compound 63, 4-((2-(3,4-dichlorophenyl)thiazol-4-yl)(methyl)amino)-1H-1,2,3-triazole-5-carboxylic acid], the IC50 is 0.1 to 1 µM.
On the same count and under the same terms, for `O=C(O)c1[nH]nnc1Nc1nc(-c2ccc(OC(F)(F)F)c(Cl)c2)cs1` [Compound 64, 4-((4-(3-chloro-4-(trifluoromethoxy)phenyl)thiazol-2-yl)amino)-1H-1,2,3-triazole-5-carboxylic acid] the value was under 0.1 µM.
